# US9199981B2 (NOVARTIS AG, priority 2011, dated 2015)
# Molecular target: c-kit (Homo sapiens (Human), UniProt P10721)
# Test: Mo7e cell proliferation assay (SCF dependent proliferation)
# Assay type: cell-based
# Conditions: Mo7e cells stimulated with human recombinant SCF, 48 hours, 1% FBS
# Description: Compounds of Formula (I) and Formula (II) provided herein were assayed to measure their capacity to inhibit c-kit and PDGFR kinases using the appropriate assay described below: c-Kit inhibition was evaluated using the Mo7e cell proliferation assay, and PDGFR inhibition was evaluated using the Rat A10 cell proliferation assay and the Human TG/HA-VSMC cell proliferation assay.
# Mo7e Cell Proliferation Assay
# The compounds of Table 1 and Table 2 were tested for inhibition of SCF dependent proliferation using human Mo7e cells which endogenously express c-kit in a 384 well format. […] After 48 hours of incubation at 37° C., cell viability was measured by adding 25 uL of CellTiter Glo (Promega) to the cells and the luminescence was measured by a CLIPR CCD camera (Molecular Devices).
# The IC50 value is given as that concentration of the test compound in question that provoke a response halfway between the baseline and maximum responses.
# c-kit, sequence (P10721 26-976): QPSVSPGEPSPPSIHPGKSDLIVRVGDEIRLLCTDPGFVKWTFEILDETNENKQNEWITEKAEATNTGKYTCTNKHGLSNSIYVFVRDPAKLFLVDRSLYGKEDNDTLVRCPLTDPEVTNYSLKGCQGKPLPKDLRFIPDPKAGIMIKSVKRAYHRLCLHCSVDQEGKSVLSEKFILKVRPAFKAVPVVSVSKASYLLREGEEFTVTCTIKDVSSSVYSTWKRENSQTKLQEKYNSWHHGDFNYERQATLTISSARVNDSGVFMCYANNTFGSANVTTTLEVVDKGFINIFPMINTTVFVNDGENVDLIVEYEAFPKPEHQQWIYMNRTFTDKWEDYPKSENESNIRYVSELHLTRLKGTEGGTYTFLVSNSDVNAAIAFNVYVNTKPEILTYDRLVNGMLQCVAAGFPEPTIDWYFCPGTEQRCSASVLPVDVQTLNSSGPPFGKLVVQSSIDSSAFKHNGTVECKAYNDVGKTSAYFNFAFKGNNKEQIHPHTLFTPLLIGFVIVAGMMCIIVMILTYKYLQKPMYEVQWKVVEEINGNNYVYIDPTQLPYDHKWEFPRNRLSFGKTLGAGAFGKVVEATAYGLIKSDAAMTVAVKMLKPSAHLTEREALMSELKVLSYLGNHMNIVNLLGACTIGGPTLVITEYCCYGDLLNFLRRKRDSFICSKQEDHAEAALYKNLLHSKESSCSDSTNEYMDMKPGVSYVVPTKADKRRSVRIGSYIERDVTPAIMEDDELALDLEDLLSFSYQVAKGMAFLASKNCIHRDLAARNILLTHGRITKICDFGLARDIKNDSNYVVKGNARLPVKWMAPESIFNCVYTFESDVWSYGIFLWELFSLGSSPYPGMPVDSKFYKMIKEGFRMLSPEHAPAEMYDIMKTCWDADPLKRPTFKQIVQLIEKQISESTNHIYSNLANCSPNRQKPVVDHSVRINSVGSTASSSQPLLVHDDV
row,IC50 [nM],SMILES
1,237,Cc1ccc(-c2noc(C3CC(F)(F)C3)n2)cc1NC(=O)c1cnc2ccc(CCC(=O)OC(C)(C)C)cn12 [F143]
2,105,COCCOCc1ccc2ncc(C(=O)Nc3cc(-c4noc(C5CC(F)(F)C5)n4)ccc3C)n2c1 [F146]
3,378,Cc1ccc(-c2noc(C3CC(F)(F)C3)n2)cc1NC(=O)c1cnc2cc(OC(F)F)ccn12 [F149]
4,165,Cc1ccc(-c2noc(C3CC(F)(F)C3)n2)cc1NC(=O)c1cnc2ccc(CC(C)(C)O)cn12 [F153]
5,365,Cc1ccc(-c2noc(C3CC(F)(F)C3)n2)cc1NC(=O)c1cnc2ccc(CN3CCOC3=O)cn12 [F154]
6,390,Cc1ccc(-c2noc(C3CC(F)(F)C3)n2)cc1NC(=O)c1cnc2cc(CC(C)(C)O)ccn12 [F155]
7,175,Cc1ccc(-c2noc([C@H]3C[C@@](C)(O)C3)n2)cc1NC(=O)c1cnc2ccc(F)cn12 [F158]
8,139,Cc1ccc(-c2noc(C3CC(F)(F)C3)n2)cc1NC(=O)c1cnc2ccc(-n3cncc3C)cn12 [F163]
9,101,COCCOCc1ccc2ncc(C(=O)Nc3cc(-c4noc(C5CC(F)(F)C5)n4)ccc3C)n2c1 [F164]
10,107,Cc1ccn2c(C(=O)Nc3cc(-c4noc(C5CC5(F)F)n4)ccc3C)cnc2c1 (stereo not drawn) [F165]
11,539,Cc1ccc(-c2noc(C3CC(F)(F)C3)n2)cc1NC(=O)c1cnc2cc(C3CCNCC3)ccn12 [F169]
12,> 10000,Cc1ccc(-c2noc(C3CC(F)(F)C3)n2)cc1NC(=O)c1cnc2ccc(CCC(=O)O)cn12 [F171]
13,> 10000,Cc1ccc(-c2noc(C3CC(F)(F)C3)n2)cc1NC(=O)c1cnc2ccc(-c3nnn[nH]3)cn12 [F173]
14,67,"Cc1ccc(-c2noc(C3CC(F)(F)C3)n2)cc1NC(=O)c1cnc2ccc(COCCF)cn12 [F176, N-(5-(5-(3,3-difluorocyclobutyl)-1,2,4-oxadiazol-3-yl)-2-methylphenyl)-6-((2-fluoroethoxy)methyl)imidazo[1,2-a]pyridine-3-carboxamide]"

# More lines, now with the values behind:
row,SMILES,IC50 [nM]
1,Cc1ccc(-c2noc(C3(NC(=O)OC(C)(C)C)CCC3)n2)cc1NC(=O)c1cnc2ccccn12 [F136],171
2,Cc1ccc(-c2noc(C3(N)CCC3)n2)cc1NC(=O)c1cnc2ccccn12 [F137],197
3,C=C1CC(c2nc(-c3ccc(F)c(NC(=O)c4cnc5ccccn45)c3)no2)C1 [F138],103
4,Cc1ccc(-c2noc(C3(CO)CC3)n2)cc1NC(=O)c1cnc2ccccn12 [F139],137
5,Cc1ccc(-c2noc(CNC(=O)C3CC3(F)F)n2)cc1NC(=O)c1cnc2ccccn12 (stereo not drawn) [F140],132
6,Cc1ccc(-c2noc(CNC(=O)OC3(C)CC3)n2)cc1NC(=O)c1cnc2cc(C(F)(F)F)ccn12 [F141],391
7,COC(=O)NC1CC(c2nc(-c3ccc(C)c(NC(=O)c4cnc5ccccn45)c3)no2)C1 (stereo not drawn) [F142],148
8,Cc1ccc(-c2noc(C3CC(F)(F)C3)n2)cc1NC(=O)c1cnc2ccc(CN3CCN(C)CC3)cn12 [F144],249
9,Cc1ccc(-c2noc(C3CC(F)(F)C3)n2)cc1NC(=O)c1cnc2ccc(CN3CCN(CCO)CC3)cn12 [F145],238
10,Cc1ccc(-c2noc(C3CC(F)(F)C3)n2)cc1NC(=O)c1cnc2ccc(-c3cnn(CC(=O)O)c3)cn12 [F147],351
11,Cc1ccc(-c2noc(C3(O)CC3)n2)cc1NC(=O)c1cnc2ccccn12 [F148],305
12,Cc1ccc(-c2noc(C3CC(n4cncn4)C3)n2)cc1NC(=O)c1cnc2ccccn12 (stereo not drawn) [F150],167
13,Cc1ccc(-c2noc([C@H]3C[C@@H](O)C3)n2)cc1NC(=O)c1cnc2ccc(F)cn12 [F151],181
14,O=C(Nc1cc(-c2noc(C3CCC3)n2)ccc1F)c1cnc2ccccn12 [F152],151
15,CC1(C)CC(c2nc(-c3ccc(F)c(NC(=O)c4cnc5ccccn45)c3)no2)C1 [F156],125
16,Cc1ccc(-c2noc(C3CC3O)n2)cc1NC(=O)c1cnc2ccccn12 (stereo not drawn) [F159],218
17,Cc1ccc(-c2noc(C3CC(F)(F)C3)n2)c(C)c1NC(=O)c1cnc2ccccn12 [F160],293
18,Cc1ccc(-c2noc(C3(F)CCC3)n2)cc1NC(=O)c1cnc2ccccn12 [F166],111
19,Cc1ccc(-c2noc(C3(O)CCC3)n2)cc1NC(=O)c1cnc2ccccn12 [F167],144
20,Cc1ccc(-c2noc(C3(C(N)=O)CC3)n2)cc1NC(=O)c1cnc2ccc(F)cn12 [F168],516
21,Cc1ccc(-c2noc([C@H]3C[C@@H](OCC(C)(C)O)C3)n2)cc1NC(=O)c1cnc2ccc(F)cn12 [F172],> 10000
22,"COC(=O)NC1(c2nc(-c3ccc(C)c(NC(=O)c4cnc5ccccn45)c3)no2)CC(F)(F)C1 [F175, methyl (3,3-difluoro-1-(3-(3-(imidazo[1,2-a]pyridine-3-carboxamido)-4-methylphenyl)-1,2,4-oxadiazol-5-yl)cyclobutyl)carbamate]",73
